# Test results published in US8476255B2, “Histone deacetylase inhibitors” (Orchid Chemicals & Pharmaceuticals Limited, priority 2007, dated 2013).
# pIC50: −log10 of the molar value.
# Experiments:
# HCT116 (colon) xenograft = assay type: in vivo; conditions: oral gavage once every day for 21 days, vs vehicle treated control
# Description: Experiments were carried out using 6-8 week old female athymic SCID (Severe Combined Immune Deficient) mice. The mice were housed in Individually Ventilated Cages (IVC) at constant temperature (22±3° C.) and humidity (50±20%). They had free access to food and water. Tumors were obtained from ATCC, USA and maintained in vivo by subcutaneous (s.c.) passage of tumor fragments (appx 30 mg) in healthy mice according to standard reported procedures. All the animal protocols were approved by the Institutional Animal Ethics Committee, ORLL, Chennai. Each experimental group included 6-8 mice bearing s.c. tumors. Tumors were implanted into the axillary region by puncturing using a Trocar, and tumor growth was monitored by measurement of tumor diameters with a Vernier caliper. Tumor Volume (TV) was calculated according to the following formula: TV(mm^3)=L×W^2×0.5, […]
# Test compound was administered by oral gavage in a volume of 5-10 ml/kg. […] Tumor size was measured twice every week and body weight was recorded daily prior to dosing.
# Test compound (T) efficacy was assessed by calculating several parameters based on tumor volume (TV) with respect to untreated control (C). Parameters routinely assessed were T/C % [TVtest/TVcontrol×100] and Tumor Volume Inhibition (TVI=1−T/C %). […]
# Toxic effects of drug treatment were assessed by Body Weight Loss %. […]
# NCIH460 (lung) cells = test: Anti-cancer screen (MTT), NCIH460; assay type: cell-based; conditions: Homo sapiens, NCI-H460, NCIH460, 48 hours, MTT
# Outline: (§1)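 Seeding at 5×10^4 cells/mL preceded 24 h culture, after which compounds diluted from DMSO stocks were added at final 0.01, 0.1, 1, 10 and 100 μM for 48 h. Viability was then read by MTT (3 h, 37 °C) at A570.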
# recombinant HDAC1 enzyme = recombinant HDAC1 enzyme (Homo sapiens (Human), UniProt Q13547); test: HDAC1 inhibitory activity (isoform selectivity); assay type: biochemical; conditions: read-out: HDAC1 inhibition (IC50)
# Chain of recombinant HDAC1 enzyme (Q13547 whole entry, canonical isoform): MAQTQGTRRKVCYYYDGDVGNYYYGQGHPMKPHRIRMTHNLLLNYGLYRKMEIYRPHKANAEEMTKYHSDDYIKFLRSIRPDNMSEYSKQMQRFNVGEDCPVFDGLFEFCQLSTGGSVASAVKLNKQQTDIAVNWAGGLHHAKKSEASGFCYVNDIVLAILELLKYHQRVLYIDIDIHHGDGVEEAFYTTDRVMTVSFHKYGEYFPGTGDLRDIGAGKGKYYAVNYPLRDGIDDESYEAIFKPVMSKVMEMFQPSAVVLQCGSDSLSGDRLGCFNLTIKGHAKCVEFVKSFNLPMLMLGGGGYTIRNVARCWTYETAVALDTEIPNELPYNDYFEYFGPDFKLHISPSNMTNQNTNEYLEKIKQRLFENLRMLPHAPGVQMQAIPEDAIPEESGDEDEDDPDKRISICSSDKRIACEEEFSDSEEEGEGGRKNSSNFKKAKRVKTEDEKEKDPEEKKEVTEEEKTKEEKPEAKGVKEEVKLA
# Description: The assay was carried out, as previously described using recombinant HDAC1 enzyme (BIOMOL, USA) and following manufacturer's instructions.
# HCT 116 (colon) cells = test: Anti-cancer screen (MTT), HCT 116; assay type: cell-based; conditions: Homo sapiens, HCT-116, HCT116, 48 hours, MTT
# Outline: as §1
# Acetylated histone (H3) = test: Histone (H3) acetylation, sandwich ELISA in HCT116 lysate; assay type: cell-based; conditions: HCT116, 4 hours
# Description: (§2) Acetylated histone (H3), acetylated Tubulin and p21 levels were detected in cell lysate by sandwich ELISA method (Cell Signaling Technology, USA, Cat No: 7232, 7204 & 7167 respectively) by following manufacturer's instructions. Briefly, colon cancer cells (HCT116. 10,000/well) were incubated with test compound (1 and 10 μM) or medium (control) for 4 hours at 37° C. in CO2 incubator. The incubation lasted 18 hours for p21 induction. After incubation, cell lysates were prepared in cell lysis buffer by sonication on ice. The lysates were collected after centrifugation and subjected to ELISA test procedure. 100 μL of each diluted cell lysate in dilution buffer (1:1) was added to appropriate capture antibody coated microwells and incubated overnight at 4° C. After washing, 100 μL of detection antibody was added for 1 hour at 37° C. After second washing, 100 μL of HRP-linked secondary antibody was added for 30 min at 37° C. Finally, after appropriate washing, 100 μL of TMB substrate was added for 10 min at 37° C. followed by 100 μL of stop solution. The absorbance of individual wells was read using a spectrophotometer at 450 nm (A450).
# acetylated Tubulin = test: Tubulin acetylation, sandwich ELISA in HCT116 lysate; assay type: cell-based; conditions: HCT116, 4 hours
# Description: as §2
structure (smiles),measurement,setting,value
"COc1ccc(/C=C(/C(=O)NCc2ccc(C(=O)Nc3ccccc3N)cc2)c2ccc(F)cc2)cc1OC [Compound 19, N-(2-Aminophenyl)-4-((3-(3,4-dimethoxyphenyl)-2-(4-fluorophenyl)acrylamido)methyl)benzamide]",maximum Tumor Volume Inhibition (TVI),HCT116 (colon) xenograft,42%
same,GI50,NCIH460 (lung) cells; read-out: Cell growth inhibition NCIH460 (Lung) GI50,2.5 µM
same,LC50,NCIH460 (lung) cells; read-out: Cell growth inhibition NCIH460 (Lung) LC50,70 µM
same,IC (TGI),NCIH460 (lung) cells; read-out: Cell growth inhibition NCIH460 (Lung) TGI,8 µM
same,pIC50,recombinant HDAC1 enzyme,7.38
same,GI50,HCT 116 (colon) cells; read-out: Cell growth inhibition HCT116 (Colon) GI50,0.3 µM
same,CC50,HCT 116 (colon) cells; read-out: Cell growth inhibition HCT116 (Colon) LC50,58 µM
same,IC (TGI),HCT 116 (colon) cells; read-out: Cell growth inhibition HCT116 (Colon) TGI,5 µM
same,H3 acetylation (Fold increase),Acetylated histone (H3); 1 μM,4 Fold increase
same,H3 acetylation (Fold increase),Acetylated histone (H3); 10 μM,16 Fold increase
same,Tubulin acetylation (Fold increase),acetylated Tubulin; 1 μM,1.9 Fold increase
same,Tubulin acetylation (Fold increase),acetylated Tubulin; 10 μM,4.4 Fold increase
